In US20230381127A1, “COMPOSITIONS AND METHODS FOR MOOD ENHANCEMENT” (EPITRACKER, INC., priority 2020, published 2023):

Tests used:
CB1 = target: T1, CB1 (Homo sapiens, UniProt P21554); experiment: SAFETYscan E/IC50 ELECT functional assay, CB1 receptor agonist mode; assay type: cell-based; conditions: at 20 μM; relative to positive control CP 55940 assigned 100% activity
T1 construct: purchased DiscoverX/Eurofins SAFETYscan E/IC50 ELECT
Text: (§1) This study assessed potential pharmacologic targets of pentadecanoic acid. Specifically, this study examined agonist and antagonist activities of synthetic pentadecanoic acid across 78 assays using SAFETYscan E/IC50 ELECT (DiscoverX/Eurofins, Fremont, California). Briefly, a variety of standardized and optimized functional assays were used to assess pentadecanoic acid's pharmacologic targets, including G protein coupled receptors (ADORA2A, ADRA1A, ADRA2A, ADRB1, ADRB2, CB1, CB2, CCK1, D1, D2S, ETA, H1, H2, M1 M2, M3, OPRD1, OPRK1, OPRM1, 5HTR1A, 5HTR1B, 5HTR2A, 5HTR2B, AVPR1A), kinases (LCK, INSR, VEGFR2, ROCK1), transporters (DAT, NET, SERT), ion channels (GABAA, 5-HT3, CA1.2, HERG, KVLQT1/MINK, NA1.5, NMDAR1/2B, NACHR), nuclear receptors (AR, GR), and non-kinase enzymes (COX1, COX2, ACHE, MAOA, PDE3A, PDE4D2). Ten-point concentration curves for both agonist (EC50) and antagonist (IC50) activity were established for each target. Maximum activity (%) was also determined based on comparisons with internal positive controls, which were assigned 100% activity.

CB2 = target: T2, CB2 (Homo sapiens, UniProt P34972); experiment: SAFETYscan E/IC50 ELECT functional assay, CB2 receptor agonist mode; assay type: cell-based; conditions: at 20 μM; relative to positive control CP 55940 assigned 100% activity
T2 construct: purchased DiscoverX/Eurofins SAFETYscan E/IC50 ELECT
Text: as §1

[1] = 6-week voluntary electronic customer survey on stress and mood after daily fatty15 (C15:0) supplement; assay type: in vivo, human; conditions: 100 mg daily oral (fatty15 capsule), 6 weeks; 135 responders; response of 7 or greater on 1-10 scale = agreement
Description: (§2) An odd-chain saturated fatty acid dietary supplement, containing an encapsulated pure (>98%) free fatty acid C15:0 powder and called fatty15™, was available as a consumer health product. Recommended dosing is a single, 100 mg capsule taken orally once a day.
6-Week Survey. Approximately six weeks following receipt of the C15:0 supplement, fattyl5, customers were provided a voluntary electronic questionnaire to evaluate potential near-term benefits, including the questions: “Overall how much would you agree with the following statement: Since starting fatty15, I have been feeling more calm and/or less stressed.” and “Overall how much would you agree with the following statement: Since starting fatty15, I generally feel happier and/or not as bothered by things that used to upset me.”
Survey responders were asked to select a number between 1 and 10, in which 1=Strongly disagree and 10=Strongly agree. A response of 7 or greater was considered an agreement with the statement. Survey responders were also asked if fatty15 had become a part of their daily health routine.

[2] = Customer testimonials on stress and mood with fatty15 (C15:0) supplement; assay type: in vivo, human; conditions: daily oral supplementation 100 mg/day (fatty15); summary of testimonials in the 1st table
Description: as §2, with “is” for “was”, “day. Customers were provided opportunities to share their experience, including through voluntary surveys and customer rating programs.” for “day.”

T1 sequence (P21554 whole entry): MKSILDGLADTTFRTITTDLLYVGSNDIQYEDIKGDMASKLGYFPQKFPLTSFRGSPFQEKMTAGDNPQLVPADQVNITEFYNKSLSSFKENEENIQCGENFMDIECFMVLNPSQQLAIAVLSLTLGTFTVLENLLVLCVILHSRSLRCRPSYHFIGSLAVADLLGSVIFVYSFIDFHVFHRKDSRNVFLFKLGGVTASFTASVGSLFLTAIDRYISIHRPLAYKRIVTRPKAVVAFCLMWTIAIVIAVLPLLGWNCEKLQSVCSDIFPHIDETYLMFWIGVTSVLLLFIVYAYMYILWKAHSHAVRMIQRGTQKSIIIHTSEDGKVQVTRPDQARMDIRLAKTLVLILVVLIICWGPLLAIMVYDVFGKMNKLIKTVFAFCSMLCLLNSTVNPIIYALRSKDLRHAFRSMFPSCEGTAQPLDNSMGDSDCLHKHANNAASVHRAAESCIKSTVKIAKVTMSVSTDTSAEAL
T2 sequence (P34972 whole entry): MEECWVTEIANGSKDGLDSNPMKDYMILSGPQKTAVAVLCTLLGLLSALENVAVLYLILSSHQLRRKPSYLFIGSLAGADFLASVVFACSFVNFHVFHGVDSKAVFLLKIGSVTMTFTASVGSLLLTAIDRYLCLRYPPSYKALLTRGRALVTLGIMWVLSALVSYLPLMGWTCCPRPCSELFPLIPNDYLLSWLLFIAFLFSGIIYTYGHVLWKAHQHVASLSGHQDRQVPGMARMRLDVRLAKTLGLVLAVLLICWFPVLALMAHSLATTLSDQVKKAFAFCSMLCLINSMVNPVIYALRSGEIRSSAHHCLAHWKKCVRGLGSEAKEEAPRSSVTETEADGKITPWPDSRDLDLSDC

CCCCCCCCCCCCCCC(=O)O [pentadecanoic acid]
CB1 agonist activity (CB1): 24.5%
CB2 agonist activity (CB2): 18.2%
customers reporting feeling calmer and/or less stressed [1]: 41%
customers reporting feeling generally happier and/or not as bothered by things that used to upset them [1]: 37%
effect on stress and mood per customer testimonials [2]: can lower stress and calm and enhance mood
